Laboratory results taken from patent US20260272936A1, “TREATMENT OF CANCER WITH A PARG INHIBITOR” (858 Therapeutics, Inc., priority 2023, published 2026).

Columns and labels:
[1] = tested on: GP2D cells; assay: 6-day growth assay, Compound 1 in combination with exatecan; type: cell-based, human
Description: The activity of Compound 1 in combination with exatecan was evaluated in the HCC1954, HCC1806, and GP2D cancer cell lines in a 6-day growth assay. HCC1954 (Cat #CRL-2338) and HCC1806 (Cat #CRL-2335) cells were obtained from American Type Culture Collection (ATCC) and maintained in ATCC modified RPMI (Cat #30-2001)+10% FBS (Cat #A3160502)+1% penicillin/streptomycin (Cat #15140-122) in a humidified incubator at 37° C., 5% CO2. GP2D cells were obtained from ECACC (Cat #95090714-1VL) and maintained in DMEM+GlutaMAX (Cat #10566-016)+10% FBS (Cat #A3160502)+1% penicillin/streptomycin (Cat #15140-122). Cells were seeded at 2,500 cells/well (HCC1954 and GP2D) or 2,000 cells/well (HCC1806) in 100 μL of growth medium in a 96-well plate (Corning costar Cat #3603) and allowed to adhere overnight at 37° C. with 5% CO2. The next day, serial dilutions of Compound 1 and exatecan were prepared and added to the corresponding wells of a 96-well plate. A solution of 0.1% DMSO in medium was used as the negative control. Cells were incubated with compound for 6 days at 37° C. with 5% CO2, then fixed, stained, and counted as described in Example 3. Concentration response-curves and IC50 values were generated by non-linear regression analysis using a 4-parameter variable slope fit in GraphPad Prism 10 software. Potential synergy between Compound 1 and exatecan was assessed using Zero interaction potency (ZIP), Highest Single Agent (HSA), Bliss, and Loewe synergy models to find the most synergistic area score, where scores >10 indicate that the interaction between the two drugs is likely to be synergistic (Ianevski et al. 2020).

[2] = tested on: OVCAR-3 cells; assay: MMS-induced nuclear PAR accumulation, immunofluorescence imaging; type: cell-based; settings: Homo sapiens; OVCAR-3, 50 μg/mL MMS, n=3; read-out: Geometric Mean EC50, PAR accumulation
Description: (§1) The HeLa (Cat #CCL-2) and OVCAR-3 (Cat #HTB-161) human cancer cell lines were obtained from ATCC (Manassas, Virginia, USA) and the RMUG-S(Cat #IFO50320) and Kuramochi (Cat #JCRB0098) cell lines were obtained from the National Institutes of Biomedical Innovation, Health and Nutrition's Japanese Collection of Research Bioresources (Ibaraki City, Osaka, Japan).
(§2) All cell lines were grown in an incubator at 37° C. in 5% CO2. HeLa cells were cultured in Dulbecco's Modified Medium (DMEM)+glutaMAX™ (Thermo Fisher Scientific, Waltham, MA, USA Cat #10566-016) containing 1% penicillin/streptomycin (pen/strep) (Thermo Fisher Scientific Cat #15070-063), and 10% fetal bovine serum (FBS) (Thermo Fisher Scientific Cat #A31605-02). Kuramochi cells were cultured in RPMI medium+glutaMAX™ (Thermo Fisher Scientific Cat #72400-047), 10% FBS, and 1% pen/strep. RMUG-S cells were cultured in Ham's F12 medium+glutaMAX™ (Thermo Fisher Scientific Cat #31765-035) containing 10% FBS, and 1% pen/strep. OVCAR-3 cells were cultured in RPMI medium+glutaMAX™ containing 20% FBS, 1% pen/strep, and 0.01 mg/mL bovine insulin (MilliporeSigma, Burlington, MA, USA Cat #10516-5ML).
(§3) Compound 1 EC50 values for accumulation of PAR chains were determined using an immunofluorescence high-content imaging assay of PAR staining. Cells were harvested with trypsin (Thermo Fisher Scientific, Cat #25200-056) and plated in black-walled, clear bottom 96-well Corning Costar 3603 plates (VWR, Radnor, PA, USA Cat #29444-008) at 15,000 cells/well in 100 μL normal growth media. The cells were incubated overnight at 37° C., 5% CO2. The following day, a 1000× Compound 1 concentration curve was prepared by serial dilution of Compound 1 in 100% DMSO for twelve concentrations with the highest starting final concentration of 10 μM. The 1000× test compound curve was diluted 1:200 into growth media to prepare a 5× concentration curve in 0.5% DMSO/media before addition of 25 μL of compound or 0.5% DMSO/media alone to each well of the plate. The plate was mixed gently on a plate shaker and then preincubated at 37° C., 5% CO2 for 1 hour. A 2.25× stock of MMS (Sigma Cat #129925-5G) plus Compound 1 in media was prepared by diluting a 100 mg/mL stock of MMS prepared in 100% DMSO into growth media containing 1× Compound 1 compound. […] Nuclear PAR accumulation was evaluated by imaging the plates on an ImageXpress Pico automated cell imaging system (Molecular Devices, San Jose, CA, USA).
(§4) Four fields for each well were acquired at 20× magnification resulting in at least 1,000 cells analyzed per well. Percent PAR positive cells were calculated using CellReporterXpress software (Molecular Devices, San Jose, CA, USA) using nuclei detection by DAPI image segmentation then setting a fluorescence intensity threshold for PAR. […]

[3] = tested on: Kuramochi cells; assay: as above; type: cell-based; settings: Homo sapiens, 50 μg/mL MMS, n=3, read-out: Geometric Mean EC50, PAR accumulation
Description: as §1, §2, §3, §4

In the case of `[2H]C([2H])(c1cnn(C)c1)N1C(=O)c2cc(S(=O)(=O)NC3(C)CC3)ccc2N2C1=NC[C@H]2C` [Compound 1, (R)-1-methyl-4-((1-methyl-1H-pyrazol-4-yl)methyl-d2)-N-(1-methylcyclopropyl)-5-oxo-1,2,4,5-tetrahydroimidazo[1,2-a]quinazoline-7-sulfonamide], the IC50 ([1]; Homo sapiens, GP2d, exatecan 0.03 nM) is reported as 6 µM, the IC50 ([1]; Homo sapiens, GP2d, exatecan 0.1 nM) is reported as 5.1 µM and the IC50 ([1]; Homo sapiens, GP2d, exatecan 0.3 nM) is reported as 3.1 µM. The IC50 ([1]; Homo sapiens, GP2d, exatecan 1 nM) was 3.1 µM, the IC50 ([1]; Homo sapiens, GP2d, exatecan 3 nM) was 8.1 µM and the IC50 ([1]; Homo sapiens, GP2d, exatecan 30 nM) was 5.4 µM. The IC50 ([1]; exatecan 0.03 nM) was 6.3 µM, the IC50 ([1]; exatecan 1 nM) was 3.3 µM and the EC50 [2] was 0.02 µM. It also gave an EC50 [3] of 0.009 µM.
